Results published in patent US11173140B2, “Dosing regimens of PKC activators” (COGNITIVE RESEARCH ENTERPRISES, INC., priority 2015, dated 2021).

Molecular target: T1, PKC-ε (Mus musculus, UniProt P16054)
T1 construct: from tissue; host or cells: brain of C57B/6 male mice
T1 sequence (P16054 1-737): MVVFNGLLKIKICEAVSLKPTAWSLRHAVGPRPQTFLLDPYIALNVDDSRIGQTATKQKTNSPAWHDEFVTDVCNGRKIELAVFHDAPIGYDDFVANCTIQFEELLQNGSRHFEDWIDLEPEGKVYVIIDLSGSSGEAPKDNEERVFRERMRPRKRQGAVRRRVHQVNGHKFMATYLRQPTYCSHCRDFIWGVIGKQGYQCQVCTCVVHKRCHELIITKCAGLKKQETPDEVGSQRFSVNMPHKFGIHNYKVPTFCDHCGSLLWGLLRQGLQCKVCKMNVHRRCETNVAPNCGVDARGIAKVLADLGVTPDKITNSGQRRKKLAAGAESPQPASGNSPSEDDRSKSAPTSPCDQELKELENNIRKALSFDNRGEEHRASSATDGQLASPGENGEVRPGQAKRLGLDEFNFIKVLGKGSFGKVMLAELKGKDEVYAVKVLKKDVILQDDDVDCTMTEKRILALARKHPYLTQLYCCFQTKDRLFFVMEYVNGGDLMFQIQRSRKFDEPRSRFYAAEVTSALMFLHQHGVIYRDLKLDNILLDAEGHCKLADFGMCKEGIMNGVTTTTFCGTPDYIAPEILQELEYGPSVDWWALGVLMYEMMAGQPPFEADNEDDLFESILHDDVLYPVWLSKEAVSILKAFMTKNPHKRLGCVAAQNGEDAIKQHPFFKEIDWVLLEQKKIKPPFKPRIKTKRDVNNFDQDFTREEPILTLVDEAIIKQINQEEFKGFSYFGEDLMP
Test: Total PKC (PKC-ε) level / downregulation in brain after i.v. bryostatin dosing regimens
Type: in vivo
Conditions: mice
Protocol: FIGS. […] (A) Downregulation of brain PKCε in mice after intravenous administration of bryostatin at doses of 10 μg/m^2, 15 μg/m^2, and 25 μg/m^2 for 1-6 consecutive weeks. (B) Downregulation of brain PKCε in mice after intravenous administration of bryostatin at two different doses (i) 2×25+2 μg/m^2, and (ii) 25 μg/m^2. Dosing regimen is disclosed along the abscissa.
Mouse studies were performed using bryostatin-i in accordance with the protocol described below. The following metrics were used to evaluate dosing regimens: induction of brain postsynaptic anchoring protein PSD-95, upregulation of BDNF levels in brain, minimal downregulation of PKC-ε levels, and elevation of brain and plasma concentrations of bryostatin. Groups of 2-3 mice were formed and housed in an approved research animal facility. Water was give ad libitum. A first study involved three groups of mice with animals in each group dosed weekly for 1, 2, 3, or 6 consecutive weeks. Each group had its own control group containing the same number of mice. In this study, mice in the first, second and third groups received an intravenous (i.v.) injection of 10 μg/m^2, 15 μg/m^2, and 25 μg/m^2 dose of bryostatin respectively. For each dose, mice in that group received a single injection of bryostatin weekly for predetermined number of consecutive weeks. Following dosing, mice were sacrificed and the blood and brain of each animal was collected for further analysis.
Cells were harvested in homogenizing buffer containing 10 mM Tris-Cl (pH 7.4), 1 mM PMSF (phenylmethylsulfonyl fluoride), 1 mM EGTA, 1 mM EDTA. 50 mM NaF, and 20 μM leupeptin and were lysed by sonication. The homogenate was centrifuged at 100,000×g for 15 min at 4° C. to obtain the cytosolic fraction (supernatant) and membrane (pellet). The pellet was resuspended in the homogenizing buffer by sonication. Protein concentration was measured using the Coomassie Plus (Bradford) Protein Assay kit (Pierce, USA). Following quantification, 20 μg of protein from each sample was subjected to SDS-PAGE analysis in 4-20% gradient Tris-Glycine gel (Invitrogen, USA). The separated protein was then transferred to nitrocellulose membrane. The membrane was blocked with BSA at room temperature for 15 min and was incubated with primary antibody over night at 4° C. After the incubation, it was washed three times with TBS-T (Tris Buffered saline-Tween 20) and further incubated with alkaline phosphatase conjugated secondary antibody (Jackson Immunoresearch Laboratories. USA) at 1:10,000 dilution for 45 min. The membrane was finally washed three times with TBS-T and developed using the 1-step NBT-BCIP substrate (Pierce, USA). Western Blot was imaged in the Image Quant RT-ECL (GE Life Sciences, Piscataway, N.J.) and densitometric quantification was performed using the IMAL software (Blanchette Rockefeller Neurosciences institute, Morgantown, W. Va.). For translocation assays, PKC activation was represented as the percentage of total protein in the membrane (membrane/cytosol+membrane). […]
C57B/6 male mice weighing between 19-21 grams were obtained from Charles River and housed in cages, 1 mouse/cage in a vivarium at the Blanchette Rockefeller Neurosciences institute. Animals were allowed access to water ad libitum.
In these studies, bryostatin was administered intravenously (i.v.) by injection into the tail vein of a mouse. Stock solutions of bryostatin were prepared in dimethyl sulfoxide (DMSO). Prior to administration to a mouse, the stock DMSO solution of bryostatin was diluted to a predetermined concentration by dilution with phosphate buffered saline/saline (PBS/saline).
Three different dosing regimens (injection schedules) were compared. The dosing regimens tested were weekly dosing, dosing every other week (alternating weeks), and spaced or intermittent dosing. […]

## CCC/C=C/C=C/C(=O)O[C@H]1/C(=C/C(=O)OC)C[C@H]2C[C@H]([C@@H](C)O)OC(=O)C[C@H](O)C[C@@H]3C[C@H](OC(C)=O)C(C)(C)[C@](O)(C[C@@H]4C/C(=C/C(=O)OC)C[C@H](/C=C/C(C)(C)[C@]1(O)O2)O4)O3 [Bryostatin-1]
10 μg/m^2 weekly, total of 6 consecutive weeks
  PKC-ε downregulation: appeared to result in downregulation
25 μg/m^2, continued dosing, 1 on/1 off and 2 on/1 off regimens
  PKC-ε downregulation: additional downregulation occurred
25 μg/m^2, rest intervals increased to three weeks (3 on/3 off)
  PKC downregulation: significantly reduced PKC downregulation
25 μg/m^2, three consecutive weekly doses, versus lower doses
  PKC-ε downregulation in brain: did not produce more PKC-ε downregulation
Cage 4: 25 μg/m^2 i.v. once weekly, 3 weeks, 24 h
  PKC (% of Control), total PKC level: 84.841 % of Control
Cage 5: 25 μg/m^2 i.v., 3 on/3 off/3 on (9 weeks), 24 h
  PKC (% of Control), total PKC level: 78.2 % of Control
Cage 6: 10 μg/m^2 i.v. once weekly, 3 weeks, 24 h
  PKC (% of Control), total PKC level: 95.197 % of Control
Cage 8: 10 μg/m^2 i.v. once weekly, 6 weeks, 24 h
  PKC (% of Control), total PKC level: 80.441 % of Control
Cage 9: 25 μg/m^2 i.v., alternating, weeks 1 and 3, 24 h
  PKC (% of Control), total PKC level: 63.02 % of Control
Cage 10: 25 μg/m^2 i.v., alternating, weeks 1, 3, 5, 7, 9, 24 h
  PKC (% of Control), total PKC level: 59.11 % of Control
Cage 11: 25 μg/m^2 i.v., weeks 1 and 2, collection week 3 (7 d delay)
  PKC (% of Control), total PKC level: 56.7 % of Control
Cage 12: 25/20 μg/m^2 i.v., injections weeks 1, 2, 4, 6, 8, collection week 9 (7 d delay)
  PKC (% of Control), total PKC level: 49.92 % of Control
Cage 18: 15 μg/m^2 i.v. once weekly, 3 weeks, 24 h
  PKC (% of Control), total PKC level: 66.430 % of Control
Cage 22 (regimen not listed in Tables 2/3)
  PKC (% of Control), total PKC level: 89.206 % of Control
Cage 24: 25 μg/m^2 i.v. once weekly, 2 weeks, 24 h
  PKC (% of Control), total PKC level: 96.723 % of Control
